IC50 and inhibition data for 10 compounds are collected here from patent US12404279B2, “Deubiquitinase inhibitors and methods of use thereof” (Molecure S.A., priority 2021, dated 2025).

Where a name gives a salt, the structure may show the parent alone.

The target in one assay is full-length USP7 (Homo sapiens (Human), UniProt Q93009). In words: Enzymatic assay to determine IC50 of USP7 inhibitors (Ubiquitin-Rhodamine 110 cleavage). It is filed as biochemical. The note with it: 0.5 nM USP7, 0.5 μM Ubiquitin-Rhodamine 110, 45 min at 37° C. The gist of the method: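 Enzyme: 0.5 nM full-length USP7 in HEPES pH 7.5 buffer with NaCl, DTT, BSA and Tween20, given 15 min at room temperature with DTT before compounds were added.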
Sequence of full-length USP7 (Q93009 whole entry): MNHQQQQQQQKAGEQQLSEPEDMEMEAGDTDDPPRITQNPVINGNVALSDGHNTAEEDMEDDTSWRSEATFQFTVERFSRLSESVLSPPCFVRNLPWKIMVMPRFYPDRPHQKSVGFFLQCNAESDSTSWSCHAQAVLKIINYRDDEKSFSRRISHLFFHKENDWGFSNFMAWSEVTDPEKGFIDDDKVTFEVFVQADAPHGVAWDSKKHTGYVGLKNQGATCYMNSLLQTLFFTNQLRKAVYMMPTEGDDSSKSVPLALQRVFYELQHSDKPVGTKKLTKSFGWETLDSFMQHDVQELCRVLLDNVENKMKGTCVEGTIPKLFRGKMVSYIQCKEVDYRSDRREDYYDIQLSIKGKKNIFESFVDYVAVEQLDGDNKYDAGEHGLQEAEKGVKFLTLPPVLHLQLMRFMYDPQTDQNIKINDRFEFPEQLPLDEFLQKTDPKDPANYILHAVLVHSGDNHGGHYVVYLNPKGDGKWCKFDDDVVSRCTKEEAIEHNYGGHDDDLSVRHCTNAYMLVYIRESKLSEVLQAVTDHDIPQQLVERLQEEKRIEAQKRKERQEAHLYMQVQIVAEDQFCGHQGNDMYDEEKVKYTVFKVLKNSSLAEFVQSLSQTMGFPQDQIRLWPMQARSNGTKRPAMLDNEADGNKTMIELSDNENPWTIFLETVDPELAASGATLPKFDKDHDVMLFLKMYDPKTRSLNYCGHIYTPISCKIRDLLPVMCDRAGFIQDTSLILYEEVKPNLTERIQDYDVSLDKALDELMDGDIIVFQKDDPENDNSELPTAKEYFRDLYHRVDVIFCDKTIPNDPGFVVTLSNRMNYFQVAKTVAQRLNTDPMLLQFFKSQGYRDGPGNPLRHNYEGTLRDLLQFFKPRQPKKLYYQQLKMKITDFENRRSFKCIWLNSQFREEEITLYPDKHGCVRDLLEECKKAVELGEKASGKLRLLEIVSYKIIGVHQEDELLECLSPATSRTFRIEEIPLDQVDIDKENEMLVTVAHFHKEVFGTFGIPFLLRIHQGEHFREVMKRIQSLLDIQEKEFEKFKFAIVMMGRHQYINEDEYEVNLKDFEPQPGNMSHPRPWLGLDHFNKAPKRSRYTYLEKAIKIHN
By IC50 is commonly meant the concentration that gives 50% inhibition. A higher IC50 goes with lower potency. In turn, `Cc1cc(C(F)(F)F)nc(-c2ccnc3cc(CN4C(=O)C5C(C4=O)C5(C)C)sc23)c1C(=O)N1CCC(N)CC1` (stereo not shown) [Example 112, 3-((7-(3-(4-aminopiperidine-1-carbonyl)-4-methyl-6-(trifluoromethyl)pyridin-2-yl)thieno[3,2-b]pyridin-2-yl)methyl)-6,6-dimethyl-3-azabicyclo[3.1.0]hexane-2,4-dione dihydrochloride] gave a half-inhibitory concentration (IC50) of less than 500 nM. Same read-out and setting: the result for `Cc1cc(C(F)(F)F)nc(-c2ccnc3cc(CN4C(=O)C5C(C4=O)C5(C)C)sc23)c1C[C@@H]1CN(C)CCO1` (stereo partly drawn) [Example 98, 6,6-dimethyl-3-((7-(4-methyl-3-(((R)-4-methylmorpholin-2-yl)methyl)-6-(trifluoromethyl)pyridin-2-yl)thieno[3,2-b]pyridin-2-yl)methyl)-3-azabicyclo[3.1.0]hexane-2,4-dione dihydrochloride] reads less than 500 nM; that for `Cc1cc(C(F)(F)F)nc(-c2ccnc3cc(CN4C(=O)C5C(C4=O)C5(C)C)sc23)c1C(=O)N1CCC(CN)C1` (racemic) [Example 139, 3-((7-(3-(3-(aminomethyl)pyrrolidine-1-carbonyl)-4-methyl-6-(trifluoromethyl)pyridin-2-yl)thieno[3,2-b]pyridin-2-yl)methyl)-6,6-dimethyl-3-azabicyclo[3.1.0]hexane-2,4-dione trihydrochloride], less than 500 nM; that for `Cc1cc(C(F)(F)F)nc(-c2ccnc3cc(CN4C(=O)C5C(C4=O)C5(C)C)sc23)c1C(=O)N1CC[C@@H]2CNC[C@@H]21` (stereo partly drawn) [Example 116, 6,6-dimethyl-3-((7-(4-methyl-3-((3aR,6aR)-octahydropyrrolo[3,4-b]pyrrole-1-carbonyl)-6-(trifluoromethyl)pyridin-2-yl)thieno[3,2-b]pyridin-2-yl)methyl)-3-azabicyclo[3.1.0]hexane-2,4-dione dihydrochloride], less than 500 nM. Turning to `Cc1cc(C(F)(F)F)nc(-c2ccnc3cc(CN4C(=O)C5C(C4=O)C5(C)C)sc23)c1CN1CC[C@@H]2CNC[C@@H]21` (stereo partly drawn) [Example 153, 3-((7-(3-(((3aR,6aR)-hexahydropyrrolo[3,4-b]pyrrol-1(2H)-yl)methyl)-4-methyl-6-(trifluoromethyl)pyridin-2-yl)thieno[3,2-b]pyridin-2-yl)methyl)-6,6-dimethyl-3-azabicyclo[3.1.0]hexane-2,4-dione trihydrochloride], the IC50 was less than 500 nM. Turning to “N-(2-(2-((6,6-dimethyl-2,4-dioxo-3-azabicyclo[3.1.0]hexan-3-yl)methyl)thieno[3,2-b]pyridin-7-yl)-4-methyl-6-(trifluoromethyl)pyridin-3-yl)azetidine-3-carboxamide 2,2,2-trifluoroacetate [Example 28]”, the IC50 was less than 500 nM. Same read-out and setting: with `CCN[C@H]1CCN(C(=O)c2c(C)cc(C(F)(F)F)nc2-c2ccnc3cc(CN4C(=O)C5C(C4=O)C5(C)C)sc23)C1` (stereo partly drawn) [Example 73, 3-((7-(3-((S)-3-(ethylamino)pyrrolidine-1-carbonyl)-4-methyl-6-(trifluoromethyl)pyridin-2-yl)thieno[3,2-b]pyridin-2-yl)methyl)-6,6-dimethyl-3-azabicyclo[3.1.0]hexane-2,4-dione dihydrochloride] the figure was less than 500 nM. Compound `Cc1ccnc(-c2ccnc3cc(CN4C(=O)C5C(C4=O)C5(C)C)sc23)c1C(O)[C@@H]1CNCCO1` (single isomer, unassigned) [Example 100, 2,2,2-trifluoroacetate] showed an IC50 of 1000 to 10000 nM.

In turn, `Cc1cc(Cl)cc(-c2ccnc3cc(CN4C(=O)C5C(C4=O)C5(C)C)sc23)c1NC(=O)[C@H]1CCNC1` (stereo partly drawn) [Example 34, (3S)—N-(4-chloro-2-(2-((6,6-dimethyl-2,4-dioxo-3-azabicyclo[3.1.0]hexan-3-yl)methyl)thieno[3,2-b]pyridin-7-yl)-6-methylphenyl)pyrrolidine-3-carboxamide 2,2,2-trifluoroacetate] gave an IC50 of less than 500 nM.

Still in this assay, the particulars now being: at 1 μM of the test compound; given where IC50 not determined yet; read-out: percent value of inhibition of USP7 activity.
Usually inhibition stands for the drop in the measured response relative to a control, in per cent. `Cc1cc(-c2ccnc3cc(CN4C(=O)C5C(C4=O)C5(C)C)sc23)c(O[C@H]2CCCNC2)cn1` (stereo partly drawn) [Example 119, 6,6-dimethyl-3-((7-(2-methyl-5-(((S)-piperidin-3-yl)oxy)pyridin-4-yl)thieno[3,2-b]pyridin-2-yl)methyl)-3-azabicyclo[3.1.0]hexane-2,4-dione 2,2,2-trifluoroacetate]: the inhibition at 1 µM is less than 20%.
